Data set [1] has as its target T1, ATP-binding cassette sub-family C member 2 (Homo sapiens, UniProt Q92887). The data set is described as follows: TP_TRANSPORTER: Immunohistochemistry in vivo, apical membrane of enterocytes. The data set is classed as functional, organism-based, Enterocyte apical membrane.
Data set [2] concerns the target T1, ATP-binding cassette sub-family C member 2. The data set can be described thus: TP_TRANSPORTER: Northern blot in vivo, apical membrane of enterocyte. The data set is classed as functional, organism-based.

Each structure is given as a SMILES string.

T1 sequence (Q92887 whole entry): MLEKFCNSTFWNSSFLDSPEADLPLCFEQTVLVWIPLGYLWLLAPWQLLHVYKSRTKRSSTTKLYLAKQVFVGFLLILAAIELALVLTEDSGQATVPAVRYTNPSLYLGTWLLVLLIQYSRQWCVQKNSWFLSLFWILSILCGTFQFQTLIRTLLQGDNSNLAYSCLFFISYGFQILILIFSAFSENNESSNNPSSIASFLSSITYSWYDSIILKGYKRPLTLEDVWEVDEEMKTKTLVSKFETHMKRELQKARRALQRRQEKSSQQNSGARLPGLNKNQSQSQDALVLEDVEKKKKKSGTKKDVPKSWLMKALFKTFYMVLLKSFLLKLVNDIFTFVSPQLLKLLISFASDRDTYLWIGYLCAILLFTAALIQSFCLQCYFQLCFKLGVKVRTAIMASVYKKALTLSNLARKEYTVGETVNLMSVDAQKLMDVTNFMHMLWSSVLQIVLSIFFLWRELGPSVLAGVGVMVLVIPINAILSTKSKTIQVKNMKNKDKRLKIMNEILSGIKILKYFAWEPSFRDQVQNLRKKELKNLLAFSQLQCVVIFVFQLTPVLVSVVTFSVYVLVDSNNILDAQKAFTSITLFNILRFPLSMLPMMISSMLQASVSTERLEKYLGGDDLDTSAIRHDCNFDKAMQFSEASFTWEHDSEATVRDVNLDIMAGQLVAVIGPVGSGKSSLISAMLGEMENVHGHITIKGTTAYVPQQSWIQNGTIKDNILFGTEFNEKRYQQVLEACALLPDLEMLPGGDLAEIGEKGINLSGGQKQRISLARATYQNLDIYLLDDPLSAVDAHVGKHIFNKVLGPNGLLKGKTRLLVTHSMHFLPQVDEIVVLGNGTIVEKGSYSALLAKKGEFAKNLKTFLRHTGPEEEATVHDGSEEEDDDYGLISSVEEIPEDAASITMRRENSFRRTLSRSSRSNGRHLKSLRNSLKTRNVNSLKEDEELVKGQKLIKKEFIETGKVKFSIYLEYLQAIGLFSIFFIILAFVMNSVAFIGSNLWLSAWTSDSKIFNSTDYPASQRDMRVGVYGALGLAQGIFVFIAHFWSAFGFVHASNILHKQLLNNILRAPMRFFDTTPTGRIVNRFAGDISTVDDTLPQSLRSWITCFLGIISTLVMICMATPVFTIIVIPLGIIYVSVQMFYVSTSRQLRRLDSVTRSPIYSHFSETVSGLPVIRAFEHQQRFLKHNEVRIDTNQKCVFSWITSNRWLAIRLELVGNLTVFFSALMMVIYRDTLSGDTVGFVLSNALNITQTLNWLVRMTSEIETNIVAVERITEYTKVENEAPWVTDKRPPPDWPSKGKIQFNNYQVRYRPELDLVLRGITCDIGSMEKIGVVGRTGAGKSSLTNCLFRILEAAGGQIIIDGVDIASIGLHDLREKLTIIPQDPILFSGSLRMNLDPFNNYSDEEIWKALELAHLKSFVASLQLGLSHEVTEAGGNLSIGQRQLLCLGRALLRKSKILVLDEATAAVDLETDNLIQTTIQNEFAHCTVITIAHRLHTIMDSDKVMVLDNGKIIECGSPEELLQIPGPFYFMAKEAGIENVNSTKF

With `CO[C@H]1/C=C/O[C@@]2(C)Oc3c(C)c(O)c4c(O)c(c(/C=N/N5CCN(C)CC5)c(O)c4c3C2=O)NC(=O)/C(C)=C\C=C\[C@H](C)[C@H](O)[C@@H](C)[C@@H](O)[C@@H](C)[C@H](OC(C)=O)[C@@H]1C` [RIFAMPIN], the Activity entry in data set [1] and in data set [2] was “inducer [+]” in each case.
